Measured values: ChEMBL document CHEMBL3886800, “Disubstituted 3,4-diamino-3-cyclobutene-1,2-dione compounds for use in the treatment of chemokine-mediated diseases” (2016)

Columns and labels:
[1] = target: T1, C-X-C chemokine receptor type 1 (Homo sapiens, UniProt P25024); test: (§1) In Vitro Affinity Assay: ⿿PathHunter HEK293-CXCR2⿝ or ⿿U2OS hCXCR1 β-arrestin⿝ cells (DiscoveRx Corporation) were seeded overnight at 10 000 cells/well (384-well format) in 20 μl of Opti MEM I medium. A preincubation with the antagonist or the vehicle for 30 min at 37° C. and 5% CO2 was followed by 60 minutes of stimulation with CXCL8 at 37° C. and 5% CO2. The cells were then placed at ambient temperature for 30 minutes. The PathHunter detection reagent (DiscoveRx Corporation) was added. After incubation for 60 min at ambient temperature, the […] during the β-arrestin-CXCR2 interaction was measured for 0.3 s in an Envision 2102 Multilabel Reader (PerkinElmer Life and Analytical Sciences).
T1 sequence (P25024 whole entry): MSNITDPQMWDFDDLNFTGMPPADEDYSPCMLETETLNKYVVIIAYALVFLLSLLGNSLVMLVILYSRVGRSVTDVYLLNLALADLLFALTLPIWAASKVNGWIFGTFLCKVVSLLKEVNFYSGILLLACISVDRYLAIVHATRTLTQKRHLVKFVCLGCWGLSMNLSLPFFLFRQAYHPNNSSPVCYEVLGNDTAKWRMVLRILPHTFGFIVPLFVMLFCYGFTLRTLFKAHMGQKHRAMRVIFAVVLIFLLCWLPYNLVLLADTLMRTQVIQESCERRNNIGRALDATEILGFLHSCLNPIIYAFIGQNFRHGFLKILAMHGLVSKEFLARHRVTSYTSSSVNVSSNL

[2] = target: T2, C-X-C chemokine receptor type 2 (Homo sapiens, UniProt P25025); test: as §1
T2 sequence (P25025 whole entry): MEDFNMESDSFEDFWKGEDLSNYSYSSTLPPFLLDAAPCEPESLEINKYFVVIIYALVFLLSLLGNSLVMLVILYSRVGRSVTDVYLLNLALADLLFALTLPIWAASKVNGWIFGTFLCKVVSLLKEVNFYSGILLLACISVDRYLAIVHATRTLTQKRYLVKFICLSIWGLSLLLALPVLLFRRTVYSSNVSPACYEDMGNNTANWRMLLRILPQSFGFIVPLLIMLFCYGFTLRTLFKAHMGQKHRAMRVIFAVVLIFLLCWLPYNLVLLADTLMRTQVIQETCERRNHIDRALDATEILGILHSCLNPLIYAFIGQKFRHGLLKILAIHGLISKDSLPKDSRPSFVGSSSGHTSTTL

SMILES | IC50 [1] [nM] | IC50 [2] [nM]
Cc1ccc(C(Nc2c(Nc3cccnc3O)c(=O)c2=O)C2CCCS2)o1 (centres undefined) | 652 | 23
Cc1ccc(C(Nc2c(Nc3ccc(Cl)c(C(=O)N(C)C)c3O)c(=O)c2=O)C2CCCS2)o1 (single isomer, unassigned) | 113 | 69
